“And” between values parts separate entries of the source, which are not always exact repeats. Equal entries are not always repeated. Where two headings read alike, the source gives them in different places.
How the values were obtained:
[1] = molecular target: T1, eqBChE (BChE from equine serum) (Equus caballus, UniProt P81908); assay: biochemical
T1 construct: BChE from equine serum (eqBChE); purchased Sigma-Aldrich (St. Louis, MO, USA); host or cells: equine serum
Protocol: (§1) Acetylcholinesterase and butyrylcholinesterase inhibitory activities of the compounds under study were evaluated spectrophotometrically following Ellman’s method using AChE from electrophorus electricus (eeAChE) and BChE from equine serum (eqBChE). The lyophilized enzymes were dissolved in sodium phosphate buffer (0.25 M, pH 7.4) to make a stock solution of eeAChE (1000 U/mL) or eqBChE (25 U/mL). […] Briefly, in each well, 100 μL of phosphate buffer, 40 μL of DTNB, 20 μL of the tested compounds (100 µM solution dissolved in 0.1% DMSO and phosphate buffer) and 20 μL of cholinesterase solution were pre-incubated in a 96-well microplate for 5 min at 30 °C. […] The rate of the reaction before adding the enzyme was subtracted from that obtained after enzyme addition in order to correct for spontaneous hydrolysis of substrate.

[2] = molecular target: T2, eeAChE (AChE from electrophorus electricus) (Electrophorus electricus, UniProt O42275); assay: biochemical; assay type: biochemical; conditions: for IC50: Ellman's method, ATCI substrate, 30 °C; for fold enhancement of eeAChE inhibitory activity: 10 carbon linker compound compared to 6 carbon linker analogue (compounds 3 and 4)
T2 construct: purchased Sigma-Aldrich (St. Louis, MO, USA)
T2 sequence (O42275 24-633): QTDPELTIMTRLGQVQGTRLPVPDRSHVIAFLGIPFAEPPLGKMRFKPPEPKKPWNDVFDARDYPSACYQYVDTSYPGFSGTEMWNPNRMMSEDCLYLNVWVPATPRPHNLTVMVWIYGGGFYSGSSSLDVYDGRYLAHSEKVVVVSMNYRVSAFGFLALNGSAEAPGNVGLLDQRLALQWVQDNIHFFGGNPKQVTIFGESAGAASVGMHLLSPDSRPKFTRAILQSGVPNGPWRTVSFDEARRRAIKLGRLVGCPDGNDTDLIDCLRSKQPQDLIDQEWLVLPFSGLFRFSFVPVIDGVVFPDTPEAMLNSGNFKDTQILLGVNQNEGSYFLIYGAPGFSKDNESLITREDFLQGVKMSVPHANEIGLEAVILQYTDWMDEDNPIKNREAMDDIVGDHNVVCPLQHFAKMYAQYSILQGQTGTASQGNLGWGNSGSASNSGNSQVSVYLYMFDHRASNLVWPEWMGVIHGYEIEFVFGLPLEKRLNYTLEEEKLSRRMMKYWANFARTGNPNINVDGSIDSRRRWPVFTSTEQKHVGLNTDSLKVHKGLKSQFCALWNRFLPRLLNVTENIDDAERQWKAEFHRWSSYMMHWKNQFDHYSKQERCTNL
Protocol: as §1

[3] = Chemical stability observation; assay type: physicochemical
From the text: Accordingly, these two compounds were selected for the study as protective agents against glutamate, iron(III) and Aβ42.

[4] = tested on: differentiated SH-SY5Y cells; assay: Neuroprotection against iron(III), MTT reduction; assay type: cell-based, human; conditions: mean ± SD; for MTT reduction: 30 min pre-treatment, then iron(III) 1 mM 24 h; for MTT reduction, aggressor alone: iron(III) 1 mM, 24 h
Protocol: (§2) After 30 min of pre-treatment with Compounds 7 (10 and 50 µM) and 11 (10 µM), the cells were exposed to different aggressors, described above, for 24 h.
(§3) Figure 6 Evaluation of the protective effects of Compounds 7 (10 and 50 µM) and 11 (10 µM) in SH-SY5Y cells against glutamate (16 mM, A), iron(III) (1 mM, B) and Aβ42 (25 µM, C) as oxidative stress inducers. The cells were pre-treated with antioxidants for 30 min and exposed to the aggressors for 24 h. The data are expressed as the means of three independent experiments together with the standard deviation (Mean ± SD). Statistical comparisons were estimated using the nonparametric method of Kruskal–Wallis [one-way ANOVA on ranks] followed by Dunn’s post hoc test (A,B) and using the parametric method of one-way analysis of variance (ANOVA) followed by Dunnett’s multiple comparison test (C, F = 364.2) (Supplementary Table S2). In all cases, p values lower than 0.05 were considered significant (^## p < 0.05, ^#### p < 0.0001 vs. control data; ** p < 0.01, *** p < 0.001, **** p < 0.0001 vs. aggressor values).
(§4) Differentiated human neuroblastoma cells were routinely cultured into […] flasks and maintained in DMEM high glucose (4.5 g/L glucose), supplemented with 10% heat-inactivated FBS (v/v), 1% NEAA (v/v) and 1% penicillin/streptomycin (v/v). The cell cultures were maintained at 37 °C in a humidified 5% CO2–95% air atmosphere and passaged once a week by trypsinization (0.25% trypsin). Neuroblastoma SH-SY5Y cells were seeded onto 96 well plates at a density of 25,000 cells/cm^2 in cell culture medium with trans-retinoic acid (RA, final concentration of 10 µM) and incubated for three days at 37 °C in a humidified, 5% CO2–95% air atmosphere. Then, the medium was supplemented with 12-O-tetradecanoylphorbol-13-acetate (TPA, final concentration of 80 nM), and cells were incubated for three days. Stock solutions of RA (10 mM) and TPA (160 µM) were prepared in DMSO. To avoid phenotypic changes, the cells used for all experiments were taken between the 19th and 28th passages.
(§5) The neuroprotective efficacy of mitochondriotropic antioxidants 7 and 11 was evaluated in a cell-based assay against diverse oxidative stress inducers. Briefly, SH-SY5Y cells were pre-treated with Compounds 7 and 11 followed by incubation with the well-described aggressors that play a role in AD progression, namely Aβ-amyloid 1-42 (Aβ42), ferric nitrilotriacetate (FeNTA) and glutamic acid. Differentiated SH-SY5Y cells were pre-treated with the test compounds 7 (10 and 50 µM) and 11 (10 µM) for 30 min. Then, a culture medium containing Aβ42 (25 µM), iron(III) (1 mM) or glutamic acid (16 mM) was added, and cells were incubated for additional 24 h. A negative control (cells treated with culture medium containing DMSO 0.1%) and a positive control (cells treated with culture medium containing DMSO 0.1%, followed by treatment with aggressors) were also included. Cell viability was estimated using the MTT reduction assay, as described by Fernandes et al..

[5] = tested on: differentiated SH-SY5Y cells; assay: Neuroprotection against glutamate, MTT reduction; assay type: cell-based, human; conditions: mean ± SD; for MTT reduction: 30 min pre-treatment, then glutamate 16 mM 24 h; for MTT reduction, aggressor alone: glutamate 16 mM, 24 h
Protocol: as §2, §3, §4, §5

[6] = tested on: differentiated SH-SY5Y cells; assay: Neuroprotection against Aβ42, MTT reduction; assay type: cell-based, human; conditions: mean ± SD; for MTT reduction: 30 min pre-treatment, then Aβ42 25 µM 24 h; for MTT reduction, aggressor alone: Aβ42 25 µM, 24 h
Protocol: as §2, §3, §4, §5

[7] = tested on: SH-SY5Y cells; set-up: method as in PMID 30784884; conditions: at 50 µM; cited from earlier work
[8] = Ellman's method, BTCI substrate, 30 °C, read-out: IC50 eqBChE, mean (CI 95%)
[9] = read-out: IC50 eeAChE, mean (CI 95%)

T1 sequence (P81908 whole entry): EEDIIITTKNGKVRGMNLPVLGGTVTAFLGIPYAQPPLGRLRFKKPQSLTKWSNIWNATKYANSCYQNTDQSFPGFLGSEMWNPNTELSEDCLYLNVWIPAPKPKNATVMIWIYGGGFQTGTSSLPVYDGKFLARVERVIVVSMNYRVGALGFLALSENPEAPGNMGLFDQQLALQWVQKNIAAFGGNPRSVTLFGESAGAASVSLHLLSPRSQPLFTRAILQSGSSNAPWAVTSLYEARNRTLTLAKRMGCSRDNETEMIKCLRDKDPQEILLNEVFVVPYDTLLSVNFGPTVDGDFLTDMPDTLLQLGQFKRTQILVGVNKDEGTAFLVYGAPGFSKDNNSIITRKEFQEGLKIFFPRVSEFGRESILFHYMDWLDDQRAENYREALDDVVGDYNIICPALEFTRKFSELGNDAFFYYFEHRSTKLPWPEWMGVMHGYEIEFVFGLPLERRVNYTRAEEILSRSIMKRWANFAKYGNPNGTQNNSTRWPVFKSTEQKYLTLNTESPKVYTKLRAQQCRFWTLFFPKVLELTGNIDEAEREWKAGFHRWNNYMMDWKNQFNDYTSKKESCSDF

| Molecule | SI: selectivity index = IC50 (eeAChE)/IC50 (eqBChE) [1] | IC50 [1, 8] [nM] | IC50 [2, 9] [nM] | IC50 [1] [nM] | IC50 ([2]; IC50 eeAChE, mean (CI 95%)) [nM] | also measured |
| --- | --- | --- | --- | --- | --- | --- |
| O=C(/C=C/c1cc(O)c(O)c(O)c1)NCCCCCC[P+](c1ccccc1)(c1ccccc1)c1ccccc1 [Compound 1] | 7.2 | 410 | 2940 | – | – | – |
| O=C(CCc1cc(O)c(O)c(O)c1)NCCCCCC[P+](c1ccccc1)(c1ccccc1)c1ccccc1 [Compound 2] | 2.1 | – | – | 3160 | 6760 | – |
| O=C(Cc1cc(O)c(O)c(O)c1)NCCCCCC[P+](c1ccccc1)(c1ccccc1)c1ccccc1 [Compound 3] | 2.0 | – | – | 4520 | 8980 | – |
| O=C(/C=C/c1ccc(O)c(O)c1)NCCCCCC[P+](c1ccccc1)(c1ccccc1)c1ccccc1 [Compound 4] | 52.7 | 120 | 6320 | – | – | – |
| O=C(CCc1ccc(O)c(O)c1)NCCCCCC[P+](c1ccccc1)(c1ccccc1)c1ccccc1 [Compound 5] | 0.4 | – | – | 2520 | 1080 | chemical stability [3]: showed chemical instability |
| O=C(Cc1ccc(O)c(O)c1)NCCCCCC[P+](c1ccccc1)(c1ccccc1)c1ccccc1 [Compound 6] | 4.2 | – | – | 930 | 3880 | – |
| O=C(/C=C/c1cc(O)c(O)c(O)c1)NCCCCCCCCCC[P+](c1ccccc1)(c1ccccc1)c1ccccc1 [Compound 7] | 30.8 | 110 | 3390 | – | – | MTT reduction ([4]; compound 10 µM): 75.90 ± 5.25 % ctrl; MTT reduction ([4]; compound 50 µM): 80.22 ± 12.76 % ctrl and 80.2 % ctrl; MTT reduction ([5]; compound 10 µM): 84.24 ± 5.32 % ctrl; MTT reduction ([5]; compound 50 µM): 81.90 ± 2.81 % ctrl and 81.9 % ctrl; MTT reduction ([6]; compound 10 µM): 72.55 ± 2.67 % ctrl; MTT reduction ([6]; compound 50 µM): 68.81 ± 0.70 % ctrl and 68.1 % ctrl |
| O=C(CCc1cc(O)c(O)c(O)c1)NCCCCCCCCCC[P+](c1ccccc1)(c1ccccc1)c1ccccc1 [Compound 8] | 7.2 | – | – | 800 | 5750 | – |
| O=C(Cc1cc(O)c(O)c(O)c1)NCCCCCCCCCC[P+](c1ccccc1)(c1ccccc1)c1ccccc1 [Compound 9] | – | – | – | 530 | 3350 | fold enhancement of eeAChE inhibitory activity [2]: 3 fold |
| O=C(/C=C/c1ccc(O)c(O)c1)NCCCCCCCCCC[P+](c1ccccc1)(c1ccccc1)c1ccccc1 [Compound 10] | 23.9 | 150 | 3590 | – | – | fold enhancement of eeAChE inhibitory activity [2]: 2 fold |
| O=C(CCc1ccc(O)c(O)c1)NCCCCCCCCCC[P+](c1ccccc1)(c1ccccc1)c1ccccc1 [Compound 11] | 4.9 | 320 | 1590 | – | – | cytotoxicity [7]: presented cytotoxicity; MTT reduction ([4]; compound 10 µM): 82.87 ± 7.87 % ctrl and 82.9 % ctrl; MTT reduction ([5]; compound 10 µM): 74.97 ± 6.87 % ctrl; MTT reduction ([6]; compound 10 µM): 66.43 ± 3.45 % ctrl and 66.4 % ctrl |
| O=C(Cc1ccc(O)c(O)c1)NCCCCCCCCCC[P+](c1ccccc1)(c1ccccc1)c1ccccc1 [Compound 12] | 10.2 | – | – | 240 | 2440 | – |
| N[C@@H](CCC(=O)O)C(=O)O [Glutamate, L-glutamic acid, reference compound] | – | – | – | – | – | MTT reduction, aggressor alone [5]: 72.68 ± 2.81 % ctrl; MTT reduction, aggressor alone ([5]; listed as glutamate): about 72.7 % ctrl |
| O=C([O-])CN(CC(=O)[O-])CC(=O)[O-].[Fe+3] [Iron(III), ferric nitrilotriacetate, reference compound] | – | – | – | – | – | MTT reduction, aggressor alone [4]: 63.06 ± 6.25 % ctrl; MTT reduction, aggressor alone ([4]; listed as iron(III)): ~63.1 % ctrl |
| Aβ-amyloid (1–42) [reference compound] | – | – | – | – | – | MTT reduction, aggressor alone [6]: 58.73 ± 2.76 % ctrl; MTT reduction, aggressor alone ([6]; listed as Aβ42): ~58.7 % ctrl |

Reference: paper PMC7024345 (Molecules, 2020)
